The text below walks through data of patent US20050032904A1, “Composition and use of allylamine derivatives” (priority 2003, published 2005).

The test system of this data set is human fibroblasts. As to the kind of experiment: Flow cytometry (FACS) cell cycle analysis. The class given is cell-based.

For the molecule `CN(C/C=C/C#CC(C)(C)C)Cc1cccc2ccccc12` [TB, 1-Naphthalenemethanamine, N-(6,6-dimethyl-2-hepten-4-ynyl)-N-methyl-, (E)-], the “cytotoxicity for untransformed human fibroblasts” value (TB 10-150 μM) was “not cytotoxic”. Further, the “cell cycle arrest or cell death” value (TB treatment for 15 h) was “did not induce cell cycle arrest or cell death”.
